Data on one molecule can be found in US8754119B2, “Use of rotigotine for the treatment of depression” (priority 2003, dated 2014).

The subject of one experiment is rats. Kind of experiment: forced swim test. Type of experiment: in vivo. To be noted: subcutaneously applied. From the text:
The “forced swim test” is an animal model, in which depressive episodes are triggered by acute stress. In this case, rats are forced to swim in a limited space. After initial attempts to save themselves, in which the animals grasp the hopelessness, they lapse into immobility. On repetition of the experiment, the animals remain immobile from the beginning of the experiment. In the event of pre-treatment with antidepressants, the period of immobility is shortened during the repetition experiment; the animals generally start searching and escape movements directly after transfer into the water basin (Porsolt, Biomedicine 30, 1979, 139).

Experiment [1] addresses T1, 5HT1A receptor (Homo sapiens, UniProt P08908).
T1 sequence (P08908 1-422): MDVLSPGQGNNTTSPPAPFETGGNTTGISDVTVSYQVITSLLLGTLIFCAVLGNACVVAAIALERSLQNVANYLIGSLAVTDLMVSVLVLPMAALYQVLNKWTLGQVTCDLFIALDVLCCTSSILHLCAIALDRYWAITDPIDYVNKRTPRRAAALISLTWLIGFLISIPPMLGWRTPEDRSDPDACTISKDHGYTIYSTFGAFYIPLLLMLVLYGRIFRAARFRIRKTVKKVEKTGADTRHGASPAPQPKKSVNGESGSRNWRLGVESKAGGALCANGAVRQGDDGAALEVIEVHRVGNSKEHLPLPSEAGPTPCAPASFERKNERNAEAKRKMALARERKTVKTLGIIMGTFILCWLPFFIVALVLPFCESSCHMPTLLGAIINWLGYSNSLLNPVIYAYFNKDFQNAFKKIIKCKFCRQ
The experiment is described as follows: binding to 5HT1A receptor.

The subject of experiment [2] is a2 receptors. The experiment is described as follows: binding to a2 receptors.
The test system of a further experiment is Sprague-Dawley rats. The experiment is described as follows: bulbectomy study (olfactory bulb removed, locomotor activity). In kind it is in vivo. The procedure:
In a further animal model (Embodiment 3) an investigation was made as to whether the antidepressive effects of rotigotine can be distinguished from a general motor stimulation. In this case, rotigotine was administered to rats, whose olfactory bulb had been removed on both sides. The removal of the olfactory bulb leads in the untreated control group to an adaptive hyperactivity. It is known from the literature that chronically administered antidepressants lead to a reduction in movement activity of the animals in this model, while stimulants further increase the motor activity (van Riezen H et al., Br. J. Pharmacol. 60(4), 1977, 521; Kelly J P et al., Pharmacol. Ther. 74(3), 1997, 299). Therefore, it is possible to discriminate between antidepressive and non-specific stimulatory effects of an active ingredient with this model. […] The bulbectomy study was carried out on Sprague-Dawley rats. A group, which had seemingly been operated on, served as a control group and was operated on without the olfactory bulb being removed. 14 days after the operation, the rats were treated with excipients, rotigotine depot suspension (every second day) or imipramine. On test days, the rats were taken onto a test field and left to themselves for 3 minutes. The locomotor activities of the animals were measured here with the aid of the number of lines crossed.

Experiment [3] deals with a2 receptors. Kind of experiment: functional action on a2 receptors. Type of experiment: biochemical.
For experiment [4], the target named is T1, 5HT1A receptor. The experiment is described as follows: functional activity on 5HT1A receptors. Type of experiment: biochemical.

Entries after “also recorded” stand apart in the source; their conditions may differ.

On to `CCCN(CCc1cccs1)C1CCc2c(O)cccc2C1` (single isomer, unassigned; (-)) [rotigotine, (−)-5,6,7,8-tetrahydro-6-[propyl[2-(2-thienyl)ethyl]amino]-1-naphthol], for which the results for the period of immobility result in the experiment on rats and in the experiment on rats (listed as Rotigotine) were “clear reduction in the immobility period” and “significantly shortened period of immobility”, respectively. Besides, the “binding to the 5HT1A receptor” value on 5HT1A receptor [1] is given as “binds”. Further, in the experiment on a2 receptors [2], the “binding to a2 receptors” value was “binds”. The bulbectomy-induced locomotor hyperactivity entry in the experiment with Sprague-Dawley rats (bulbectomised rats, low doses) is on record as “virtually complete suppression of the bulbectomy-induced locomotor hyperactivity; also recorded: significantly reduces the motor hyperactivity”. Also, in the experiment with Sprague-Dawley rats (higher doses, bulbectomised and control animals), the locomotor activity result was “stimulatory dopamine-agonistic effect predominates; also recorded: non-specific activation of the locomotor activity dominates”. Further, the “mode of action on a2 receptors” value in the experiment on a2 receptors [3] is listed as “acts antagonistically”. For the same molecule, the “mode of action on 5HT1A receptors” value at 5HT1A receptor [4] was “agonistic activity”.
